Results reported in patent US20240317708A1, “INHIBITORS OF TRANSGLUTAMINASES” (ZEDIRA GMBH, priority 2021, published 2024).
pIC50: −log10 of the molar value.

What was measured:
[1] = Log D shake flask method (octanol / PBS pH 7.4, HPLC); assay type: physicochemical; conditions: octanol/phosphate-buffered saline (PBS); octanol / PBS pH 7.4, shake flask
Experimental: In order to classify the inventive compounds according to their lipophilicity, Log D values (distribution coefficient) were determined by means of the well-established shake flask method, measuring the partition of a compound between an octanol and phosphate-buffered saline (PBS, pH 7.4) by HPLC.

[2] = target: T1, recombinant human transglutaminase 2 (Homo sapiens, UniProt P21980); experiment: Transglutaminase assay (dansylcadaverine incorporation into dimethylcasein, DCC-assay); assay type: biochemical; conditions: recombinant human TG2 10 nM, dansylcadaverine/dimethylcasein, 37° C.
T1 construct: purchased Zedira T022
T1 sequence (P21980 1-687): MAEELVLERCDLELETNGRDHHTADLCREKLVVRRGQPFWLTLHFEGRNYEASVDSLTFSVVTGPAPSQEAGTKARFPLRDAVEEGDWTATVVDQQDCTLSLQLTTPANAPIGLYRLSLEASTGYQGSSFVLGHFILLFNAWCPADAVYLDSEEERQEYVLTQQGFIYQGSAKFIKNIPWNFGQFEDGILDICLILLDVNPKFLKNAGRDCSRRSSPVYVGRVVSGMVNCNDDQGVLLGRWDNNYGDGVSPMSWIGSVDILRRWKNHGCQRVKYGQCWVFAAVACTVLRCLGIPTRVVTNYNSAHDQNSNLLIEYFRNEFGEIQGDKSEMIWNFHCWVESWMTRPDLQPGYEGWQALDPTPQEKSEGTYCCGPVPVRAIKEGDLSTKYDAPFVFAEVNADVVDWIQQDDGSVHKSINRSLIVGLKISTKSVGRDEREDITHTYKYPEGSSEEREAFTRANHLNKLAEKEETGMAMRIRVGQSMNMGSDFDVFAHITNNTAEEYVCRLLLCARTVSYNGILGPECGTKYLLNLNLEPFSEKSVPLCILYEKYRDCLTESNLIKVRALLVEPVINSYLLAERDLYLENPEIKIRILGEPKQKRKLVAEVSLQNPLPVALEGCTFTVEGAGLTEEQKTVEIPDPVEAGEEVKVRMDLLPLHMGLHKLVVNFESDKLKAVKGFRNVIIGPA
Summary of the method: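 IC50 derived from fluorescence slope between 20 and 30 min (λex 330 nm, λem 500 nm, 37 °C), expressed relative to a 2% DMSO control. Reaction: 10 nM recombinant human TG2, 4 μM dimethylcasein, 16.7 μM dansylcadaverine, 10 mM CaCl2 and glutathione, pH 8.0.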

[3] = Caco-2 permeability assay (CacoReady kit); assay type: in vitro ADME; conditions: human
Summary of the method: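 Caco-2 monolayer barrier, commercial ready-to-use kit, manufacturer protocol. Read-out: Papp.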

Structure (SMILES)	logD [1]	pIC50 [2]	Papp [3] [×10⁻⁶ cm/s]
COC(=O)/C=C/CC[C@H](NC(=O)c1oc2ccccc2c1C)C(=O)Nc1cccn(CC(=O)NC[C@@H]2CC[C@H]3C[C@@H]2C3(C)C)c1=O [III-71, (S,E)-methyl 7-(1-(2-(((1S,2R,5S)-6,6-dimethylbicyclo[3.1.1]heptan-2-yl)methylamino)-2-oxoethyl)-2-oxo-1,2-dihydropyridin-3-ylamino)-6-(3-methylbenzofuran-2-carboxamido)-7-oxohept-2-enoate]	3 to 5	6.60 to 7.60	1 to 10
COC(=O)/C=C/CC[C@H](NC(=O)c1nncs1)C(=O)Nc1cccn(CC(=O)NC23CC(C2)C3)c1=O [III-171, (S,E)-methyl 7-(1-(2-(bicyclo[1.1.1]pentan-1-ylamino)-2-oxoethyl)-2-oxo-1,2-dihydropyridin-3-ylamino)-7-oxo-6-(1,3,4-thiadiazole-2-carboxamido)hept-2-enoate]	< 1	6.60 to 7.60	< 1
COC(=O)/C=C/CC[C@H](NC(=O)c1oc2ccccc2c1C)C(=O)Nc1cccn(CC(=O)NC23CCCC4CC(CCC42)C3)c1=O (stereo partly drawn) [III-72, (S,E)-methyl 7-(1-(2-(4-homoisotwistane-3-amino)-2-oxoethyl)-2-oxo-1,2-dihydropyridin-3-ylamino)-6-(3-methylbenzofuran-2-carboxamido)-7-oxohept-2-enoate]	3 to 5	6.60 to 7.60	1 to 10
COC(=O)/C=C/CC[C@H](NC(=O)c1cncn1C)C(=O)Nc1cccn(CC(=O)N[C@@H]2C[C@H]3CC[C@@H]2C3)c1=O [III-62, (S,E)-methyl 7-(1-(2-((1R,2R,4S)-bicyclo[2.2.1]heptan-2-ylamino)-2-oxoethyl)-2-oxo-1,2-dihydropyridin-3-ylamino)-6-(1-methyl-1H-imidazole-5-carboxamido)-7-oxohept-2-enoate]	1 to 3	> 7.60	< 1
Cc1cc(C(=O)N[C@@H](CC/C=C/C(=O)Nc2ccccc2)C(=O)Nc2cccn(CC(=O)NC34CC(C3)C4)c2=O)c(C)o1 [III-153, (S,E)-N7-(1-(2-(bicyclo[1.1.1]pentan-1-ylamino)-2-oxoethyl)-2-oxo-1,2-dihydropyridin-3-yl)-6-(2,5-dimethylfuran-3-carboxamido)-N1-phenylhept-2-enediamide]	1 to 3	6.60 to 7.60	1 to 10
COC(=O)/C=C/CC[C@H](NC(=O)c1oc2ccccc2c1C)C(=O)Nc1cccn(CC(=O)NC23CC4CC5C2C[C@@H]2C[C@H]5C(C4)[C@H]3C2)c1=O [III-73, (S,E)-methyl 7-(1-(2-(diamantane-1-amino)-2-oxoethyl)-2-oxo-1,2-dihydropyridin-3-ylamino)-6-(3-methylbenzofuran-2-carboxamido)-7-oxohept-2-enoate]	3 to 5	> 7.60	1 to 10
Cn1ccnc1C(=O)N[C@@H](CC/C=C/C(=O)c1ccccc1)C(=O)Nc1cccn(CC(=O)NC23CC(C2)C3)c1=O [III-157, (S,E)-N-(1-(1-(2-(bicyclo[1.1.1]pentan-1-ylamino)-2-oxoethyl)-2-oxo-1,2-dihydropyridin-3-ylamino)-1,7-dioxo-7-phenylhept-5-en-2-yl)-1-methyl-1H-imidazole-2-carboxamide]	1 to 3	5.82 to 6.60	< 1
Cc1cn2c(C(=O)N[C@@H](CC/C=C/C(=O)NC(C)C)C(=O)Nc3cccn(CC(=O)NC45CC(C4)C5)c3=O)csc2n1 [III-141, (S,E)-N7-(1-(2-(bicyclo[1.1.1]pentan-1-ylamino)-2-oxoethyl)-2-oxo-1,2-dihydropyridin-3-yl)-N1-isopropyl-6-(6-methylimidazo[2,1-b]thiazole-3-carboxamido)hept-2-enediamide]	< 1	5.82 to 6.60	1 to 10
COC(=O)/C=C/CC[C@H](NC(=O)c1cncnc1C)C(=O)Nc1cccn(CC(=O)NC2C3CC4CC2CC(C(=O)O)(C4)C3)c1=O (stereo partly drawn) [III-136, (S,E)-methyl 7-(1-(2-(5-carboxy-2-aminoadamantane)-2-oxoethyl)-2-oxo-1,2-dihydropyridin-3-ylamino)-6-(4-methylpyrimidine-5-carboxamido)-7-oxohept-2-enoate]	< 1	5.82 to 6.60	< 1
C=CCNC(=O)/C=C/CC[C@H](NC(=O)c1nccc2cnccc12)C(=O)Nc1cccn(CC(=O)NC23CC(C2)C3)c1=O [III-151, (S,E)-N1-allyl-N7-(1-(2-(bicyclo[1.1.1]pentan-1-ylamino)-2-oxoethyl)-2-oxo-1,2-dihydropyridin-3-yl)-6-(2,6-naphthyridine-1-carboxamido)hept-2-enediamide]	< 1	5.82 to 6.60	< 1
COC(=O)/C=C/CC[C@H](NC(=O)[C@@H]1CCCN1C(C)=O)C(=O)Nc1cccn(CC(=O)NC2C3CC4CC(C3)CC2C4)c1=O (stereo partly drawn) [III-21, (S,E)-methyl 6-((S)-1-acetylpyrrolidine-2-carboxamido)-7-(1-(2-(2-adamantylamino)-2-oxoethyl)-2-oxo-1,2-dihydropyridin-3-ylamino)-7-oxohept-2-enoate]	1 to 3	> 7.60	< 1

The remaining lines, values ahead:

logD [1]	pIC50 [2]	Papp [3] [×10⁻⁶ cm/s]	Structure (SMILES)
1 to 3	5.82 to 6.60	1 to 10	CCCCCNC(=O)/C=C/CC[C@H](NC(=O)c1cn2ccsc2n1)C(=O)Nc1cccn(CC(=O)NC23CC(C2)C3)c1=O [III-143, (S,E)-N7-(1-(2-(bicyclo[1.1.1]pentan-1-ylamino)-2-oxoethyl)-2-oxo-1,2-dihydropyridin-3-yl)-6-(imidazo[2,1-b]thiazole-6-carboxamido)-N1-pentylhept-2-enediamide]
1 to 3	6.60 to 7.60	1 to 10	COC(=O)/C=C/CC[C@H](NC(=O)c1cn(C)nn1)C(=O)Nc1cccn(CC(=O)NC2C3CC4CC(C3)CC2C4)c1=O (stereo partly drawn) [III-103, (S,E)-methyl 7-(1-(2-(2-adamantylamino)-2-oxoethyl)-2-oxo-1,2-dihydropyridin-3-ylamino)-6-(1-methyl-1H-1,2,3-triazole-4-carboxamido)-7-oxohept-2-enoate]
3 to 5	6.60 to 7.60	< 1	COC(=O)/C=C/CC[C@H](NC(=O)c1oc2ccccc2c1C)C(=O)Nc1cccn(CC(=O)NC23CC4CC(C2)CC(C(=O)OC)(C4)C3)c1=O [III-54, (S,E)-methyl 7-(1-(2-(3-methyladamantane-3-carboxylate-1-amino)-2-oxoethyl)-2-oxo-1,2-dihydropyridin-3-ylamino)-6-(3-methylbenzofuran-2-carboxamido)-7-oxohept-2-enoate]
3 to 5	> 7.60	< 1	COC(=O)/C=C/CC[C@H](NC(=O)c1cncc([N+](=O)[O-])c1)C(=O)Nc1cccn(CC(=O)NC2C3CC4CC(C3)CC2C4)c1=O (stereo partly drawn) [III-34, (S,E)-methyl 7-(1-(2-(2-adamantylamino)-2-oxoethyl)-2-oxo-1,2-dihydropyridin-3-ylamino)-6-(5-nitronicotinamido)-7-oxohept-2-enoate]
1 to 3	> 7.60	< 1	COC(=O)/C=C/CC[C@H](NC(=O)c1snnc1C)C(=O)Nc1cccn(CC(=O)N[C@@H]2C[C@@H]3CC[C@H]2C3)c1=O [III-115, (S,E)-methyl 7-(1-(2-((1S,2R,4R)-bicyclo[2.2.1]heptan-2-ylamino)-2-oxoethyl)-2-oxo-1,2-dihydropyridin-3-ylamino)-6-(4-methyl-1,2,3-thiadiazole-5-carboxamido)-7-oxohept-2-enoate]
3 to 5	> 7.60	1 to 10	COC(=O)/C=C/CC[C@H](NC(=O)c1sc(Br)cc1Br)C(=O)Nc1cccn(CC(=O)NC2C3CC4CC(C3)CC2C4)c1=O (stereo partly drawn) [III-15, (S,E)-methyl 6-(3,5-dibromothiophene-2-carboxamido)-7-(1-(2-(2-adamantylamino)-2-oxoethyl)-2-oxo-1,2-dihydropyridin-3-ylamino)-7-oxohept-2-enoate]
1 to 3	6.60 to 7.60	< 1	COC(=O)/C=C/CC[C@H](NC(=O)c1oc2ccccc2c1C)C(=O)Nc1cccn(CC(=O)NC23CC4CC(CC(O)(C4)C2)C3)c1=O [III-50, (S,E)-methyl 7-(1-(2-(3-hydroxyadamantan-1-amino)-2-oxoethyl)-2-oxo-1,2-dihydropyridin-3-ylamino)-6-(3-methylbenzofuran-2-carboxamido)-7-oxohept-2-enoate]
